Reference: article PMC10812521, “Boesenbergia rotunda and Its Pinostrobin for Atopic Dermatitis: Dual 5-Lipoxygenase and Cyclooxygenase-2 Inhibitor and Its Mechanistic Study through Steady-State Kinetics and Molecular Modeling” (Antioxidants, 2024)
Values after ≈ are worked out from the molar mass of the structure shown. “Also recorded” adds a separate entry of the source. Where a name gives a salt, the structure may show the parent alone. Read-outs that look alike come from different tables or passages of the source. One block for each compound: values may come before it.

Assays:
COX-2 and COX-1 = tested on: COX-2 and COX-1; design: method as in PMID 26626242; conditions: cited from earlier work
Human recombinant COX-2 = target: T1, Human recombinant COX-2 (Homo sapiens, UniProt P35354); experiment: Cyclooxygenase-2 inhibitory assay; type: biochemical
T1 construct: purchased Sigma Aldrich C0858; host or cells: insect cells
T1 sequence (P35354 18-604): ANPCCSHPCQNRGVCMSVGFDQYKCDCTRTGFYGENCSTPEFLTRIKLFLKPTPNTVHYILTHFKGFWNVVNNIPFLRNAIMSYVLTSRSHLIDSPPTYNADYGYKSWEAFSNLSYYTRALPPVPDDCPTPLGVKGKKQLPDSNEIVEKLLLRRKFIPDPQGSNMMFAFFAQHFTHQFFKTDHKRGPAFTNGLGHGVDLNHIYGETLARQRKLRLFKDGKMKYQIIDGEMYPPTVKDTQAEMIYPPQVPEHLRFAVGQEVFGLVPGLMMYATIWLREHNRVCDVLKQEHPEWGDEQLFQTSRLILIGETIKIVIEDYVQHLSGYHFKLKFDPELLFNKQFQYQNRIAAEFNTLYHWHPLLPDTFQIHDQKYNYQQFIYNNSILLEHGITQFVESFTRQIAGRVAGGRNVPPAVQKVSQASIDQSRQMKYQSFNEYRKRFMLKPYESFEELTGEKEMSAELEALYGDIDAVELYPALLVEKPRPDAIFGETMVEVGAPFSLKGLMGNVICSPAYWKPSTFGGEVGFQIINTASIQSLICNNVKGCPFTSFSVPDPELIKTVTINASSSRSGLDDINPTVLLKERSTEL
Description: This method was adapted and modified from Chew et al. (2018). Human recombinant COX-2 expressed in insect cells (Sigma Aldrich, C0858) was used in this experiment. Initially, a solution of 100 mM Tris HCl buffer, pH 8, was plated out in each well of a 96-well plate. Various concentrations of 40 µL samples (dissolved in polysorbate-20 and DMSO) were further added to the plate, followed by the addition of 40 µL of 40 U COX-2 enzyme (in ice-cool 100 mM Tris HCl buffer, pH 8). The mixture was incubated at 25 °C for 15 min under dark condition. Following the incubation, 10 µL of 20 mM N,N,N′,N′-tetramethyl-p-phenylenediamine (TMPD) and 4 µL of 10 µM of arachidonic acid were added to the mixture. Incubation of the mixture was further performed at a subdued light condition for 15 min. Prostaglandin G2 (PGG2) as an intermediate peroxide product was formed by the reaction and further oxidized the TMPD to a purple-colored TMPD complex. The absorbance was measured at 611 nm. The experiments were performed in duplicate wells. […] The percentage of inhibition was calculated by Equation (7), and the IC50 values were determined. (7) % Inhibition=Absorbance control−Absorbance sample/Absorbance control×100

Human recombinant 5-LOX = target: T2, Human recombinant 5-LOX (Homo sapiens, UniProt P09917); experiment: 5-Lipoxygenase inhibitory assay; type: biochemical
T2 construct: purchased Cayman Chemical
T2 sequence (P09917 1-674): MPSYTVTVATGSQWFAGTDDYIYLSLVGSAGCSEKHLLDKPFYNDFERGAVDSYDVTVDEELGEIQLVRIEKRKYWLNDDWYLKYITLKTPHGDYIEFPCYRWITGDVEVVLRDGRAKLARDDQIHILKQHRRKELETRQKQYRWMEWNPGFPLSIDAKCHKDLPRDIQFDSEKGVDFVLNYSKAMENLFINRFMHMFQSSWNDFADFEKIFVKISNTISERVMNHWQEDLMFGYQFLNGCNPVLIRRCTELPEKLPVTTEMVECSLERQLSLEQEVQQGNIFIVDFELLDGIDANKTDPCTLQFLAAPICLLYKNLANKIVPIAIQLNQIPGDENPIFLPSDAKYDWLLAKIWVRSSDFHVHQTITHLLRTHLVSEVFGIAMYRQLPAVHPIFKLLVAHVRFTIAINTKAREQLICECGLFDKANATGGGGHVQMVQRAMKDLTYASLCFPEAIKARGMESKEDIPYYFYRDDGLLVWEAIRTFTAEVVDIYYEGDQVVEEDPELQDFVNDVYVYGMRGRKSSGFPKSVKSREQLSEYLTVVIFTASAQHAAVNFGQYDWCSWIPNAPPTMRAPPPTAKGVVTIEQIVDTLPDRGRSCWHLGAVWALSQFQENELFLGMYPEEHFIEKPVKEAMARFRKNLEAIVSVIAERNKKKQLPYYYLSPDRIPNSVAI
Description: We performed this method according to a previous study with some modifications. Human recombinant 5-LOX (Cayman Chemical, E.C. 1.13.11.34, Ann Arbor, MI, USA) was used in this study. Various concentrations of 20 µL of the tested samples (dissolved in polysorbate-20 and DMSO) were plated in a 96-well UV transparent plate followed by the addition of 100 µL of 0.1 M potassium phosphate buffer, pH 6.3. The mixture was maintained at 25 °C before the addition of enzyme. We added 20 µL of 100 U 5-LOX enzyme (in 0.1 M potassium phosphate buffer, pH 6.3) to the sample solution followed by a 4 min incubation at 25 °C. Afterward, the reaction was initiated by adding 10 µL of 1 mM arachidonic acid as a substrate. The incubation was performed at 25 °C for 30 min, and the absorbance was measured at 234 nm using a microplate reader. The nonenzymatic control was used as a background. […] The experiments were performed in two rounds to generate five replicate wells in total. The percentage of inhibition was calculated by Equation (8), and the IC50 values were determined. (8) % Inhibition=Absorbance control−Absorbance sample/Absorbance control×100

[1] = target: T3, Human recombinant 5-lipoxygenase (Homo sapiens, UniProt P09917); experiment: Steady-state inhibition kinetic study of 5-lipoxygenase; type: biochemical; conditions: for type of inhibition against 5-LOX: Michaelis-Menten and Lineweaver-Burk plots
T3 construct: purchased Cayman Chemical
T3 sequence (P09917 1-674): T2 sequence (P09917 1-674)
Description: The same experimental conditions as described previously for determining enzyme inhibition were applied. The reaction was performed at 25 °C and measured kinetically for 30 min (BioTek Synergy H1 microplate reader, Winooski, VT, USA). […] Furthermore, the enzymes’ velocity was plotted versus the substrate concentration, which was fitted to the Henri–Michaelis–Menten equation. In addition, the data were transformed to fit a double reciprocal plot using the Lineweaver–Burk method. […] All measurements were performed in two rounds of triplicate wells.

[2] = Nitric oxide (NO) radical scavenging activity (Griess reaction); conditions: pure compounds
Description: The technique was adapted and modified from the study of Thadhani et al.. The Griess reaction was used to determine the NO radical scavenging activity. The NO radicals were generated from 10 mM sodium nitroprusside (SNP) in phosphate-buffered saline (PBS), pH 7.3. A range of sample concentrations (10 µL, 0.625–5 mg/mL) were reacted with 10 mM SNP in PBS at pH 7.3 (90 µL) at room temperature for 90 min in a 96-well plate under visible polychromatic light. Afterward, 1% sulfanilamide in 5% H3PO4 (50 µL) was added to the preincubated extract, followed by subsequent incubation in a dark condition with ambient temperature for 5 min. Following that, 50 µL of 0.1% w/v N-(1-naphtyl)-ethylenediamine (NED) in distilled water was added to each well before incubating at room temperature for 30 min in a dark condition. The diazotization of sulfanilamide with a nitrite ion occurred, followed by a coupling reaction with NED solution to generate a magenta-colored chromophore. The absorbance was measured using a microplate reader at 540 nm. Quercetin was used as a positive control. […] A solvent was used as a control. The percentage inhibition was calculated using Equation (5). (5) % Inhibition=Absorbance control−Absorbance sample/Absorbance control×100

[3] = Ferric reducing antioxidant power (FRAP); conditions: pure compound
Description: Each extract/EOs sample (10 µL) was added to each well of a 96-well plate at various concentrations (1–5 mg/mL), followed by a freshly prepared FRAP reagent (190 µL). The mixture was then incubated at room temperature for 4 min. Vivid blue resulted from the […]. The absorbance was further measured at 595 nm. The FRAP value (Equation (6)) was determined by calculating the concentration of ferric ions in the samples relative to the calibration curve of FeSO4 (FRAP value in µM FeSO4/mg dry weight of extract). (6) FRAP value=C ×v (mL)/d × c (mg/mL) where C is the calibrated sample concentration, v is the volume sample, d is the dilution factor, and c is the concentration of the tested sample.

Staphylococcus aureus = experiment: Broth dilution assay (MIC); type: cell-based; conditions: pure compounds, inactive at >200 µg/mL
Description: The MIC values were determined using a broth dilution assay. Tetracycline used as an antibiotic was dissolved in 50% ethanol while EOs, extracts, and pinostrobin dissolved in DMSO (0.2% v/v) were suspended in an LB medium to obtain the final concentrations of EOs/extract, pinostrobin, and tetracycline in the range of 0.1562–200 µg/mL. Then, 20 µL of the bacterial culture with an OD600 value of ~0.5 was taken into each tube, which was continuously inoculated. Afterward, the treated culture was incubated at 37 °C for 24 h in a shaking condition (180 rpm). The absorbance was further measured at 600 nm. An LB medium and 0.2% DMSO were used as positive controls, while the cell culture without treatment in an LB medium was used as a negative control. The experiments were performed in triplicate.

[4] = topical application, mouse model, 1000 mg/kg; cited from earlier work
[5] = tested on: keratinocyte (HaCaT) cells; design: method as in earlier work; conditions: cited from earlier work
[6] = DPPH radical scavenging activity; conditions: pure compounds
Description: Each extract/EOs sample (20 µL) at various concentrations ([…]–5 mg/mL) was placed to a 96-well plate, followed by the addition of 120 µM DPPH solution in methanol (180 µL). The plate was subsequently incubated for 30 min in the dark at 37 °C. After that, the absorbance was measured by a microplate reader at 517 nm. Quercetin and solvent were used as a positive control and a control, respectively. The radical scavenging percentage inhibition against DPPH was calculated using Equation (4). (4) % Inhibition=Absorbance control−Absorbance sample/Absorbance control×100

COX-2 = conditions: cited from earlier work
5-LOX = tested on: 5-LOX; design: method as in PMID 17376394; conditions: cited from earlier work
[7] = tested on: LPS-induced RAW264.7 murine macrophage cells; design: method as in PMID 26048035; conditions: 25 µg/mL; cited from earlier work
[8] = tested on: RAW264.7 murine macrophage cells; design: method as in PMID 26048035; conditions: 25 µg/mL; cited from earlier work
soybean 15-lipoxygenase = tested on: soybean 15-lipoxygenase; design: method as in PMID 26048035; conditions: tested range of concentrations; cited from earlier work
[9] = read-out: COX-2 IC50 (µg/mL) (converted)
[10] = Staphylococcus aureus, read-out: MIC

Compound: COc1cc(O)c2c(c1)OC(c1ccccc1)CC2=O (racemic) [racemic pinostrobin, pinostrobin]
COX activity compared with the positive control (COX-2 and COX-1): comparable to etodolac | selectivity COX-2 versus COX-1 (COX-2 and COX-1): more selective for COX-2 than COX-1

Compound: CCC(=O)OCC(=O)[C@@]1(OC(=O)CC)[C@@H](C)C[C@H]2[C@@H]3CCC4=CC(=O)C=C[C@]4(C)[C@@]3(F)[C@@H](O)C[C@@]21C [BD, betamethasone dipropionate]
IC50 (Human recombinant COX-2; read-out: COX-2 IC50): 240 µM | IC50 (Human recombinant COX-2; [9]): 240 µM | IC50 (Human recombinant 5-LOX; 5-LOX IC50 (µM)): 2.08 µM | IC50 (Human recombinant 5-LOX; 5-LOX IC50 (µg/mL)): 2.08 µM

Compound: CC(Cc1ccc(O)c(O)c1)C(C)Cc1ccc(O)c(O)c1 (stereo not drawn) [NDGA, nordihydroguaiaretic acid]
type of inhibition against 5-LOX [1]: mixed-type inhibition; also recorded: mixed-type inhibitor

Compound: COc1cc(O)c2c(c1)O[C@H](c1ccccc1)CC2=O [Pinostrobin, pinostrobin]
NO Radical; IC50 [2]: >1000 µg/mL | FRAP (mM FeSO4/g Extract) [3]: 1.04 ± 0.01 mM FeSO4/g Extract | IC50 (Human recombinant COX-2; read-out: COX-2 IC50): 286 µM | IC50 (Human recombinant COX-2; [9]): 286 µM | Ki [1]: 2280 nM | type of inhibition against 5-LOX [1]: mixed-type inhibition; also recorded: mixed-type inhibitor | MIC (Staphylococcus aureus; [10]): > 200 µg/mL | MIC (Staphylococcus aureus): >200 µg/mL | dermal toxicity [4]: no dermal toxicity was observed | IC50 keratinocyte (HaCaT) cells [5]: 30.76 µg/mL (≈ 114 µM) | full maximal inhibitory concentration (IC100) keratinocyte (HaCaT) cells [5]: > 250 µg/mL | DPPH Radical; IC50 [6]: >1000 µg/mL | IC50 (Human recombinant 5-LOX; read-out: 5-LOX IC50): 0.499 µM | IC50 (Human recombinant 5-LOX; read-out: 5-LOX IC50 (µg/mL) (converted)): 0.499 µM | fold superior 5-LOX inhibitory activity than BD (Human recombinant 5-LOX; relative to BD): 4 fold | fold superior 5-LOX inhibitory activity to NDGA (Human recombinant 5-LOX; relative to NDGA): 10 fold

IC50 [2]: 310 µM | NO Radical; IC50 [2]: 93.58 ± 7.93 µg/mL | DPPH Radical; IC50 [6]: 19.08 ± 1.34 µg/mL | IC50 [6]: 63.1 µM
Compound: O=c1c(O)c(-c2ccc(O)c(O)c2)oc2cc(O)cc(O)c12 [Quercetin, Quercetin hydrate]

Compound: CN(C)[C@@H]1C(O)=C(C(N)=O)C(=O)[C@@]2(O)C(O)=C3C(=O)c4c(O)cccc4[C@@](C)(O)[C@H]3C[C@@H]12 [Tetracycline, tetracycline hydrochloride]
MIC (Staphylococcus aureus; [10]): 3.12 µg/mL

Compound: COc1ccc2c(c1)c(CC(=O)O)c(C)n2C(=O)c1ccc(Cl)cc1 [indomethacin]
COX-2 IC50 (COX-2): 0.26 ± 0.03 µg/mL

Compound: (–)-pinostrobin
inhibition of NO production [7]: 90.84% | cytotoxic effect [8]: without a cytotoxic effect | activity towards soybean 15-lipoxygenase (soybean 15-lipoxygenase): inactive
